The source of these data is patent US7651995B2, “Absorption enhancers such as e.g. BHT, BHA or propyl gallate” (Axcess Limited, priority 2003, dated 2010).

This assay relates to Caco-2 cells. The assay can be described thus: Trans-epithelial electrical resistance (TEER) across Caco-2 cell monolayer. Type of assay: cell-based, human. The following applies: Caco-2 monolayer; for TEER 15 minutes after addition: fall >50% of initial value considered significant; for TEER before addition: four replicates. How it is done: Caco-2 cells (a cell line derived from human colon adenocarcinoma) are grown as a confluent mono-layer on the surface of a porous membrane (pore size 0.4 μm, surface area 0.33 cm^2) separating two aqueous compartments, the upper compartment filled with 200 μl of culture medium, and the lower compartment containing 600 μl of the culture medium. Electrical resistance across the mono-layer is measured using an epithelial voltohmeter connected to electrodes inserted into the medium on either side of the mono-layer in the upper and lower compartments. This trans-epithelial electrical resistance (TEER) is measured immediately before, and fifteen minutes after the addition of aromatic alcohols to the upper compartment (typical results are given in the table below). Fall in TEER is considered indicative of the increased flow of materials (including bulk fluid phase) across the cell monolayer. Falls of greater than 50% of the initial value are considered significant. Reducing the concentration tends to reduce the effect observed.

[1] abbreviates: agent 0.3 mg/ml in upper compartment.
The mark [2] stands for this setting: baseline immediately before addition of agent at 0.3 mg/ml.

Take `COc1ccc(O)c(C(C)(C)C)c1` [Butylated hydroxy anisole, butylated hydroxy anisole]: the “TEER 15 minutes after addition” value under setting [1] amounted to 183 ohm · cm^2. Under setting [2], the TEER before addition is 564 ohm · cm^2.
`Cc1cc(C(C)(C)C)c(O)c(C(C)(C)C)c1` [Butylated hydroxy toluene, butylated hydroxy toluene]: the “TEER 15 minutes after addition” value under setting [1] turned out to be 194 ohm · cm^2. This molecule had a TEER before addition under setting [2] of 633 ohm · cm^2.
Consider `CCCOC(=O)c1cc(O)c(O)c(O)c1` [Propyl gallate, propyl gallate], for which the “TEER 15 minutes after addition” value by setting is: (agent 0.2 mg/ml in upper compartment) 629 ohm · cm^2; (agent 13 mg/ml in upper compartment) −0.6 ohm · cm^2. Also, the TEER before addition was 667 ohm · cm^2 (baseline immediately before addition of agent at 0.2 mg/ml) and 494 ohm · cm^2 (baseline immediately before addition of agent at 13 mg/ml).
